Test results: ChEMBL document CHEMBL1201862, “PubChem BioAssay data set” (2004)
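Method: 48-hour compound exposure of cells in 96-well plates, five concentrations, linear interpolation of endpoints. GI50 marks 50% less growth.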 Active and inactive are the calls of the source. No stated cut-off is given here; in the data, active = GI50 up to about 1.1 µM and inactive = higher.

Assays:
Test in all cases: NCI anticancer screen, dose series, 48 h
[1] = test system: SNB-75
[2] = test system: HCT-15
[3] = test system: HCT-116
[4] = test system: OVCAR-3
[5] = test system: DU-145
[6] = test system: M14
[7] = test system: Malme-3M
[8] = test system: SF-295
[9] = test system: HOP-62
[10] = test system: U-251
[11] = test system: MDA-MB-435
[12] = test system: Hs-578T
[13] = test system: A549
[14] = test system: SK-MEL-2
[15] = test system: SNB-19
[16] = test system: RXF 393
[17] = test system: UACC-257
[18] = test system: SK-MEL-5
[19] = test system: SF-539
[20] = test system: UO-31
[21] = test system: NCI-H460
[22] = test system: K562
[23] = test system: COLO 205
[24] = test system: MOLT-4
[25] = test system: MCF7
[26] = test system: HL-60
[27] = test system: SW-620
[28] = test system: HOP-92
[29] = test system: IGROV-1
[30] = test system: A498
[31] = test system: MDA-N
[32] = test system: 786-0
[33] = test system: LOX IMVI
[34] = test system: SK-MEL-28
[35] = test system: MDA-MB-231
[36] = test system: SF-268
[37] = test system: TK-10
[38] = test system: UACC-62
[39] = test system: RPMI-8226
[40] = test system: SK-OV-3
[41] = test system: EKVX
[42] = test system: CAKI-1
[43] = test system: T47D
[44] = test system: NCI-H23
[45] = test system: KM12
[46] = test system: CCRF-CEM
[47] = test system: PC-3
[48] = test system: OVCAR-5
[49] = test system: HCC 2998
[50] = test system: ACHN
[51] = test system: OVCAR-4
[52] = test system: NCI-H522
[53] = test system: SN12C
[54] = test system: NCI/ADR-RES
[55] = test system: SR
[56] = test system: OVCAR-8
[57] = test system: HT-29

Structure (SMILES): CCOc1ccc(Nc2nc3c(s2)C(=O)c2ccccc2C3=O)cc1
- GI50 [1]: 11.1 µM (inactive)
- GI50 [2]: 2.55 µM
- GI50 [3]: 13.2 µM (inactive)
- GI50 [4]: 3.04 µM (inactive)
- GI50 [5]: 14.2 µM (inactive)
- GI50 [6]: 12.2 µM (inactive)
- GI50 [7]: 2.77 µM (inactive)
- GI50 [8]: 10.7 µM (inactive)
- GI50 [9]: 17.7 µM (inactive)
- GI50 [10]: 7.64 µM (inactive)
- GI50 [11]: 1.79 µM (inactive)
- GI50 [12]: 12.1 µM (inactive)
- GI50 [13]: 19.5 µM (inactive)
- GI50 [14]: 15.1 µM (inactive)
- GI50 [15]: 15.7 µM (inactive)
- GI50 [16]: 12.8 µM (inactive)
- GI50 [17]: 10.4 µM (inactive)
- GI50 [18]: 2.27 µM (inactive)
- GI50 [19]: 10.4 µM (inactive)
- GI50 [20]: 14.4 µM (inactive)
- GI50 [21]: 15 µM (inactive)
- GI50 [22]: 3.36 µM (inactive)
- GI50 [23]: 19.8 µM (inactive)
- GI50 [24]: 5.08 µM (inactive)
- GI50 [25]: 4.81 µM (inactive)
- GI50 [26]: 3.19 µM (inactive)
- GI50 [27]: 3.21 µM (inactive)
- GI50 [28]: 12.3 µM (inactive)
- GI50 [29]: 11.9 µM (inactive)
- GI50 [30]: 15.8 µM (inactive)
- GI50 [31]: 1.96 µM (inactive)
- GI50 [32]: 14.2 µM (inactive)
- GI50 [33]: 3.76 µM (inactive)
- GI50 [34]: 18.9 µM (inactive)
- GI50 [35]: 2.33 µM (inactive)
- GI50 [36]: 3.63 µM (inactive)
- GI50 [37]: 20.8 µM (inactive)
- GI50 [38]: 2.24 µM (inactive)
- GI50 [39]: 3.85 µM (inactive)
- GI50 [40]: 19.7 µM (inactive)
- GI50 [41]: 20 µM (inactive)
- GI50 [42]: 8.41 µM (inactive)
- GI50 [43]: 13.6 µM (inactive)
- GI50 [44]: 8.13 µM (inactive)
- GI50 [45]: 13.7 µM (inactive)
- GI50 [46]: 7.82 µM (inactive)
- GI50 [47]: 5.56 µM (inactive)
- GI50 [48]: 21.6 µM (inactive)
- GI50 [49]: 17.1 µM (inactive)
- GI50 [50]: 14.5 µM (inactive)
- GI50 [51]: 0.787 µM (active)
- GI50 [52]: 7.5 µM (inactive)
- GI50 [53]: 3.76 µM (inactive)

Structure (SMILES): CNC1=Nc2ccccc2C(=S)N2CSC[C@@H]12
- GI50 [2]: > 100 µM
- GI50 [3]: > 100 µM (inactive)
- GI50 [4]: > 100 µM (inactive)
- GI50 [5]: > 100 µM (inactive)
- GI50 [6]: > 100 µM (inactive)
- GI50 [7]: > 100 µM (inactive)
- GI50 [54]: > 100 µM (inactive)
- GI50 [8]: > 100 µM (inactive)
- GI50 [9]: > 100 µM (inactive)
- GI50 [10]: > 100 µM (inactive)
- GI50 [55]: 7.55 µM (inactive)
- GI50 [11]: > 100 µM (inactive)
- GI50 [13]: > 100 µM (inactive)
- GI50 [14]: > 100 µM (inactive)
- GI50 [15]: > 100 µM (inactive)
- GI50 [16]: > 100 µM (inactive)
- GI50 [18]: > 100 µM (inactive)
- GI50 [19]: > 100 µM (inactive)
- GI50 [20]: > 100 µM (inactive)
- GI50 [21]: > 100 µM (inactive)
- GI50 [22]: > 100 µM (inactive)
- GI50 [23]: > 100 µM (inactive)
- GI50 [24]: > 100 µM (inactive)
- GI50 [25]: > 100 µM (inactive)
- GI50 [27]: > 100 µM (inactive)
- GI50 [28]: 50.9 µM (inactive)
- GI50 [30]: > 100 µM (inactive)
- GI50 [32]: > 100 µM (inactive)
- GI50 [34]: > 100 µM (inactive)
- GI50 [35]: > 100 µM (inactive)
- GI50 [36]: > 100 µM (inactive)
- GI50 [37]: > 100 µM (inactive)
- GI50 [38]: > 100 µM (inactive)
- GI50 [39]: > 100 µM (inactive)
- GI50 [40]: > 100 µM (inactive)
- GI50 [42]: > 100 µM (inactive)
- GI50 [43]: > 100 µM (inactive)
- GI50 [44]: > 100 µM (inactive)
- GI50 [45]: > 100 µM (inactive)
- GI50 [47]: > 100 µM (inactive)
- GI50 [48]: > 100 µM (inactive)
- GI50 [49]: > 100 µM (inactive)
- GI50 [56]: > 100 µM (inactive)
- GI50 [50]: > 100 µM (inactive)
- GI50 [51]: > 100 µM (inactive)
- GI50 [57]: > 100 µM (inactive)
- GI50 [52]: > 100 µM (inactive)
- GI50 [53]: > 100 µM (inactive)
